Measured values from patent US20230085307A1, “PYRIDAZINONE COMPOUND AND HERBICIDE” (NISSAN CHEMICAL CORPORATION, priority 2019, published 2023).

Tests used:
[1] = test system: chickweed; assay: Test Example 5: herbicidal effect by foliage application, plastic box (Table 20, symbol P); format: in vivo, common chickweed (Stellaria media); conditions: foliage application, 320 g/ha, three weeks after application
Outline: (§1)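 Sow seeds spot-wise in sterilized diluvial soil; cover with ~1.5 cm soil. Grow 14 days in greenhouse, 25° C. to 30° C. Spray foliage with emulsion diluted to predetermined amount. Rate effect after 3 weeks.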

[2] = test system: southern crabgrass; assay: Test Example 5: herbicidal effect by foliage application, plastic box (Table 20, symbol F); format: in vivo, southern crabgrass (Digitaria ciliaris); conditions: foliage application, 320 g/ha, three weeks after application
Outline: as §1

[3] = test system: lambsquarters; assay: Test Example 5: herbicidal effect by foliage application, plastic box (Table 20, symbol O); format: in vivo, lambsquarters (Chenopodium album); conditions: foliage application, 320 g/ha, three weeks after application
Outline: as §1

[4] = test system: oval-leafed pondweed; assay: Test Example 2: herbicidal activity, application during weed generation under submerged conditions (Table 17, symbol C); format: in vivo, oval-leafed pondweed (Monochoria vaginalis); conditions: AAH 320 g/ha; application during weed generation, submerged conditions
Outline: (§2)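 Herbicide emulsion, diluted with water to the chosen amount, is applied onto 4 cm floodwater over alluvial soil where the weeds were co-sown and raised at 25–30° C. Application timing: 1–2 leaves. Assessment: three weeks afterwards.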

[5] = test system: barnyard grass; assay: Test Example 3: herbicidal effect by foliage application, Wagner pot (Table 18, symbol H); format: in vivo, barnyard grass (Echinochloa crus-galli); conditions: amount of applied herbicide 320 g/ha
Outline: (§3)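 Plants were sown in alluvial soil held under 0.1–0.5 cm standing water and grown 14 days in a greenhouse at 25–30 °C. An emulsifiable formulation, water-diluted to the set dose, was then sprayed onto the foliage, and effects were scored three weeks later using previously defined criteria.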

[6] = test system: velvetleaf; assay: Test Example 5: herbicidal effect by foliage application, plastic box (Table 20, symbol M); format: in vivo, velvetleaf (Abutilon theophrasti); conditions: foliage application, 320 g/ha, three weeks after application
Outline: as §1

[7] = test system: rice flat sedge; assay: Test Example 3: herbicidal effect by foliage application, Wagner pot (Table 18, symbol E); format: in vivo, rice flat sedge (Cyperus iria); conditions: amount of applied herbicide 320 g/ha
Outline: as §3

[8] = test system: Italian ryegrass; assay: Test Example 5: herbicidal effect by foliage application, plastic box (Table 20, symbol K); format: in vivo, Italian ryegrass (Lolium multiflorum); conditions: foliage application, 320 g/ha, three weeks after application
Outline: as §1

[9] = test system: late watergrass; assay: Test Example 1: herbicidal activity, application before weed generation under submerged conditions (Table 16, symbol A); format: in vivo, late watergrass (Echinochloa oryzicola); conditions: amount of applied herbicide 320 g/ha
Outline: (§4)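 Emulsion formulation, water-diluted to set dose, was put onto the flooded surface (4 cm depth, alluvial soil) the same day weeds were sown and 2.5-leaf rice transplanted. After 3 weeks at 25-30 °C under glass, each species was rated 0 (≤5% kill) to 5 (≥90% kill).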

[10] = test system: persian speedwell; assay: Test Example 5: herbicidal effect by foliage application, plastic box (Table 20, symbol R); format: in vivo, Persian speedwell (Veronica persica); conditions: foliage application, 320 g/ha, three weeks after application
Outline: as §1

[11] = test system: Japanese bulrush; assay: Test Example 1: herbicidal activity, application before weed generation under submerged conditions (Table 16, symbol B); format: in vivo, Japanese bulrush (Schoenoplectus juncoides); conditions: amount of applied herbicide 320 g/ha
Outline: as §4

[12] = test system: green foxtail; assay: Test Example 5: herbicidal effect by foliage application, plastic box (Table 20, symbol G); format: in vivo, green foxtail (Setaria viridis); conditions: foliage application, 320 g/ha, three weeks after application
Outline: as §1

[13] = test system: barnyard grass; assay: Test Example 5: herbicidal effect by foliage application, plastic box (Table 20, symbol H); format: in vivo, barnyard grass (Echinochloa crus-galli); conditions: foliage application, 320 g/ha, three weeks after application
Outline: as §1

[14] = test system: blackgrass; assay: Test Example 5: herbicidal effect by foliage application, plastic box (Table 20, symbol J); format: in vivo, blackgrass (Alopecurus myosuroides); conditions: foliage application, 320 g/ha, three weeks after application
Outline: as §1

[15] = test system: Japanese bulrush; assay: Test Example 2: herbicidal activity, application during weed generation under submerged conditions (Table 17, symbol B); format: in vivo, Japanese bulrush (Schoenoplectus juncoides); conditions: AAH 320 g/ha; application during weed generation, submerged conditions
Outline: as §2

[16] = test system: oval-leafed pondweed; assay: Test Example 1: herbicidal activity, application before weed generation under submerged conditions (Table 16, symbol C); format: in vivo, oval-leafed pondweed (Monochoria vaginalis); conditions: amount of applied herbicide 320 g/ha
Outline: as §4

[17] = test system: redroot pigweed; assay: Test Example 5: herbicidal effect by foliage application, plastic box (Table 20, symbol N); format: in vivo, redroot pigweed (Amaranthus retroflexus); conditions: foliage application, 320 g/ha, three weeks after application
Outline: as §1

[18] = test system: Chinese sprangletop; assay: Test Example 3: herbicidal effect by foliage application, Wagner pot (Table 18, symbol D); format: in vivo, chinese sprangletop (Leptochloa chinensis); conditions: amount of applied herbicide 320 g/ha
Outline: as §3

[19] = test system: late watergrass; assay: Test Example 2: herbicidal activity, application during weed generation under submerged conditions (Table 17, symbol A); format: in vivo, late watergrass (Echinochloa oryzicola); conditions: AAH 320 g/ha; application during weed generation, submerged conditions
Outline: as §2

[20] = test system: wild oat; assay: Test Example 5: herbicidal effect by foliage application, plastic box (Table 20, symbol I); format: in vivo, wild oat (Avena fatua); conditions: foliage application, 320 g/ha, three weeks after application
Outline: as §1

[21] = test system: windgrass; assay: Test Example 5: herbicidal effect by foliage application, plastic box (Table 20, symbol L); format: in vivo, windgrass (Apera spica-venti); conditions: foliage application, 320 g/ha, three weeks after application
Outline: as §1

Compound	P: chickweed, herbicidal effect grade [1]	F: southern crabgrass, herbicidal effect grade [2]	O: lambsquarters, herbicidal effect grade [3]	herbicidal effect rating, C: oval-leafed pondweed [4]	herbicidal effect on H: barnyard grass [5]	M: velvetleaf, herbicidal effect grade [6]	herbicidal effect on E: rice flat sedge [7]	K: Italian ryegrass, herbicidal effect grade [8]	Herbicidal effect, A: late watergrass [9]	R: persian speedwell, herbicidal effect grade [10]	Herbicidal effect, B: Japanese bulrush [11]	G: green foxtail, herbicidal effect grade [12]	H: barnyard grass, herbicidal effect grade [13]	J: blackgrass, herbicidal effect grade [14]	herbicidal effect rating, B: Japanese bulrush [15]	Herbicidal effect, C: oval-leafed pondweed [16]	N: redroot pigweed, herbicidal effect grade [17]	herbicidal effect on D: Chinese sprangletop [18]	herbicidal effect rating, A: late watergrass [19]	I: wild oat, herbicidal effect grade [20]	other results
CCCC(=O)Oc1c(CC)nn(C)c(=O)c1-c1c(-c2ccc(OC(F)(F)F)cc2)sc2ccc(F)cc12 [2-413]	5 (Herbicidal rate of 90% or more (almost completely withered))	0 (Herbicidal rate of 5% or less (almost no effect))	4 (Herbicidal rate of 70% or more and less than 90%)	0 (Herbicidal rate of 5% or less (almost no effect))	5 (Herbicidal rate of 90% or more (almost completely withered))	4 (Herbicidal rate of 70% or more and less than 90%)	4 (Herbicidal rate of 70% or more and less than 90%)	2 (Herbicidal rate of 20% or more and less than 40%)	3 (Herbicidal rate of 40% or more and less than 70%)	5 (Herbicidal rate of 90% or more (almost completely withered))	0 (Herbicidal rate of 5% or less (almost no effect))	3 (Herbicidal rate of 40% or more and less than 70%)	1 (Herbicidal rate of 5% or more and less than 20%)	0 (Herbicidal rate of 5% or less (almost no effect))	1 (Herbicidal rate of 5% or more and less than 20%)	0 (Herbicidal rate of 5% or less (almost no effect))	4 (Herbicidal rate of 70% or more and less than 90%)	4 (Herbicidal rate of 70% or more and less than 90%)	3 (Herbicidal rate of 40% or more and less than 70%)	0 (Herbicidal rate of 5% or less (almost no effect))	L: windgrass, herbicidal effect grade [21]: 0 (Herbicidal rate of 5% or less (almost no effect))
CCCOc1ccc(-c2sc3ccc(F)cc3c2-c2c(O)c(CC)nn(C)c2=O)cc1 [2-418]	5 (Herbicidal rate of 90% or more (almost completely withered))	2 (Herbicidal rate of 20% or more and less than 40%)	5 (Herbicidal rate of 90% or more (almost completely withered))	0 (Herbicidal rate of 5% or less (almost no effect))	5 (Herbicidal rate of 90% or more (almost completely withered))	5 (Herbicidal rate of 90% or more (almost completely withered))	5 (Herbicidal rate of 90% or more (almost completely withered))	4 (Herbicidal rate of 70% or more and less than 90%)	4 (Herbicidal rate of 70% or more and less than 90%)	5 (Herbicidal rate of 90% or more (almost completely withered))	4 (Herbicidal rate of 70% or more and less than 90%)	3 (Herbicidal rate of 40% or more and less than 70%)	4 (Herbicidal rate of 70% or more and less than 90%)	4 (Herbicidal rate of 70% or more and less than 90%)	3 (Herbicidal rate of 40% or more and less than 70%)	2 (Herbicidal rate of 20% or more and less than 40%)	5 (Herbicidal rate of 90% or more (almost completely withered))	3 (Herbicidal rate of 40% or more and less than 70%)	2 (Herbicidal rate of 20% or more and less than 40%)	0 (Herbicidal rate of 5% or less (almost no effect))	L: windgrass, herbicidal effect grade [21]: 4 (Herbicidal rate of 70% or more and less than 90%)
